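Step 1: Grow cells in 96-well plates. Step 2: Expose to compound for 48 hours at 5 concentrations. Step 3: Interpolate endpoints linearly; if unreached, use highest concentration. GI50 = concentration required for 50% inhibition of growth. TGI is the concentration that stops growth completely.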
Tests used:
Assay in all cases: NCI anticancer screen, dose series, 48 h
786-0 renal = test system: 786-0 renal
A498 renal = test system: A498 renal
A549 NSCLC = test system: A549 NSCLC
ACHN renal = test system: ACHN renal
BT-549 breast = test system: BT-549 breast
CAKI-1 renal = test system: CAKI-1 renal
CCRF-CEM leukemia = test system: CCRF-CEM leukemia
COLO 205 colon = test system: COLO 205 colon
DU-145 prostate = test system: DU-145 prostate
EKVX NSCLC = test system: EKVX NSCLC
HCC-2998 colon = test system: HCC-2998 colon
HCT-116 colon = test system: HCT-116 colon
HCT-15 colon = test system: HCT-15 colon
HL-60(TB) leukemia = test system: HL-60(TB) leukemia
HOP-62 NSCLC = test system: HOP-62 NSCLC
HOP-92 NSCLC = test system: HOP-92 NSCLC
HS 578T breast = test system: HS 578T breast
HT29 colon = test system: HT29 colon
IGROV1 ovarian = test system: IGROV1 ovarian
K-562 leukemia = test system: K-562 leukemia
KM12 colon = test system: KM12 colon
LOX IMVI melanoma = test system: LOX IMVI melanoma
M14 melanoma = test system: M14 melanoma
MALME-3M melanoma = test system: MALME-3M melanoma
MCF7 breast = test system: MCF7 breast
MDA-MB-231 breast = test system: MDA-MB-231 breast
MDA-MB-435 = test system: MDA-MB-435
MOLT-4 leukemia = test system: MOLT-4 leukemia
NCI-H226 lung = test system: NCI-H226 lung
NCI-H23 lung = test system: NCI-H23 lung
NCI-H460 lung = test system: NCI-H460 lung
NCI-H522 lung = test system: NCI-H522 lung
NCI/ADR-RES ovarian = test system: NCI/ADR-RES ovarian
OVCAR-3 ovarian = test system: OVCAR-3 ovarian
OVCAR-4 ovarian = test system: OVCAR-4 ovarian
OVCAR-5 ovarian = test system: OVCAR-5 ovarian
OVCAR-8 ovarian = test system: OVCAR-8 ovarian
PC-3 prostate = test system: PC-3 prostate
RPMI-8226 leukemia = test system: RPMI-8226 leukemia
RXF 393 renal = test system: RXF 393 renal
SF-268 CNS = test system: SF-268 CNS
SF-295 CNS = test system: SF-295 CNS
SF-539 CNS = test system: SF-539 CNS
SK-MEL-2 melanoma = test system: SK-MEL-2 melanoma
SK-MEL-28 melanoma = test system: SK-MEL-28 melanoma
SK-MEL-5 melanoma = test system: SK-MEL-5 melanoma
SK-OV-3 ovarian = test system: SK-OV-3 ovarian
SN12C renal = test system: SN12C renal
SNB-19 CNS = test system: SNB-19 CNS
SNB-75 CNS = test system: SNB-75 CNS
SR leukemia = test system: SR leukemia
SW-620 colon = test system: SW-620 colon
T-47D breast = test system: T-47D breast
TK-10 renal = test system: TK-10 renal
U251 CNS = test system: U251 CNS
UACC-257 melanoma = test system: UACC-257 melanoma
UACC-62 melanoma = test system: UACC-62 melanoma
UO-31 renal = test system: UO-31 renal

## C#CCNCCCN1C(=O)c2ccc3c4c(ccc(c24)C1=O)C(=O)N(CCCNCC#C)C3=O
786-0 renal
  GI50: 778 nM
  TGI: 5360 nM
A498 renal
  GI50: 312 nM
  TGI: 1410 nM
A549 NSCLC
  GI50: 134 nM
  TGI: 393 nM
ACHN renal
  GI50: 144 nM
  TGI: 1740 nM
BT-549 breast
  GI50: 1440 nM
  TGI: 2890 nM
CAKI-1 renal
  GI50: 237 nM
  TGI: 955 nM
CCRF-CEM leukemia
  GI50: 295 nM
  TGI: 2890 nM
COLO 205 colon
  GI50: 91.1 nM
  TGI: 238 nM
DU-145 prostate
  GI50: 219 nM
  TGI: 600 nM
EKVX NSCLC
  GI50: 302 nM
  TGI: 1130 nM
HCC-2998 colon
  GI50: 242 nM
  TGI: 766 nM
HCT-116 colon
  GI50: 157 nM
  TGI: 1950 nM
HCT-15 colon
  GI50: 206 nM
  TGI: 809 nM
HL-60(TB) leukemia
  GI50: 305 nM
  TGI: 988 nM
HOP-62 NSCLC
  GI50: 267 nM
  TGI: 1560 nM
HOP-92 NSCLC
  GI50: 1790 nM
  TGI: 7740 nM
HS 578T breast
  GI50: 919 nM
  TGI: 4760 nM
HT29 colon
  GI50: 76.6 nM
  TGI: 539 nM
IGROV1 ovarian
  GI50: 187 nM
  TGI: 972 nM
K-562 leukemia
  GI50: 230 nM
  TGI: 1630 nM
KM12 colon
  GI50: 284 nM
  TGI: 1330 nM
LOX IMVI melanoma
  GI50: 205 nM
  TGI: 637 nM
M14 melanoma
  GI50: 317 nM
  TGI: 987 nM
MALME-3M melanoma
  GI50: 158 nM
  TGI: 373 nM
MCF7 breast
  GI50: 132 nM
  TGI: 328 nM
MDA-MB-231 breast
  GI50: 670 nM
  TGI: 5920 nM
MDA-MB-435
  GI50: 189 nM
  TGI: 404 nM
MOLT-4 leukemia
  GI50: 188 nM
  TGI: 869 nM
NCI-H226 lung
  GI50: 151 nM
  TGI: 551 nM
NCI-H23 lung
  GI50: 220 nM
  TGI: 669 nM
NCI-H460 lung
  GI50: 101 nM
  TGI: 363 nM
NCI-H522 lung
  GI50: 251 nM
  TGI: 841 nM
NCI/ADR-RES ovarian
  GI50: 467 nM
  TGI: 3810 nM
OVCAR-3 ovarian
  GI50: 277 nM
  TGI: 957 nM
OVCAR-4 ovarian
  GI50: 137 nM
  TGI: 279 nM
OVCAR-5 ovarian
  GI50: 534 nM
  TGI: 2610 nM
OVCAR-8 ovarian
  GI50: 180 nM
  TGI: 1550 nM
PC-3 prostate
  GI50: 463 nM
  TGI: 4410 nM
RPMI-8226 leukemia
  GI50: 404 nM
  TGI: 4180 nM
RXF 393 renal
  GI50: 228 nM
  TGI: 1070 nM
SF-268 CNS
  GI50: 404 nM
  TGI: 3050 nM
SF-295 CNS
  GI50: 119 nM
  TGI: 514 nM
SF-539 CNS
  GI50: 470 nM
  TGI: 1750 nM
SK-MEL-2 melanoma
  GI50: 244 nM
  TGI: 729 nM
SK-MEL-28 melanoma
  GI50: 613 nM
  TGI: 2160 nM
SK-MEL-5 melanoma
  GI50: 140 nM
  TGI: 274 nM
SK-OV-3 ovarian
  GI50: 645 nM
  TGI: 4320 nM
SN12C renal
  GI50: 214 nM
  TGI: 949 nM
SNB-19 CNS
  GI50: 328 nM
  TGI: 1450 nM
SNB-75 CNS
  GI50: 451 nM
  TGI: 1690 nM
SR leukemia
  GI50: 219 nM
  TGI: 1040 nM
SW-620 colon
  GI50: 154 nM
  TGI: 992 nM
T-47D breast
  GI50: 1020 nM
  TGI: 3900 nM
TK-10 renal
  GI50: 689 nM
  TGI: 6880 nM
U251 CNS
  GI50: 223 nM
  TGI: 1020 nM
UACC-257 melanoma
  GI50: 181 nM
  TGI: 342 nM
UACC-62 melanoma
  GI50: 384 nM
  TGI: 1070 nM
UO-31 renal
  GI50: 260 nM
  TGI: 1380 nM

— PubChem BioAssay (NCI)
